The source of these data is patent publication US6040331A, “Nerve cell protective agents” (Mochida Pharmaceutical Co., Ltd., priority 1996, dated 2000).

In brackets after ≈: the same amount, converted by molar mass.

For series [1], the system named is cerebral ischemic animal models. The conditions noted are these: in vivo; cited from earlier work.
The subject of series [2] is formalin induced pain reaction. Put plainly: Effectiveness in formalin induced paw pain test. Type of series: in vivo, mouse. The conditions noted are these: for Suppression of pain reaction, Second phase / Suppression of pain reaction, First phase: oral, 30 min before formalin; for Suppression of pain reaction, Second phase: from 10 min to 45 min; for Suppression of pain reaction, First phase: within 10 min after induction. On the procedure:
The effectiveness of compounds in a formalin induced pain test was studied in accordance with the method of Shibata et al., Pain, 38, 347, 1989.
Specifically, the left hind paw of a mouse was injected subcutaneously with 25 μl of a 0.5% formalin solution and the duration of time for which the mouse licked and bit the treated foot starting just after the injection was measured with a stopwatch; the measured times were integrated for every 5 minutes and recorded. The formalin induction caused a characteristic biphase pain reaction; the pain recognized within 10 min after the induction was categorized as a first-phase pain reaction and the pain recognized from 10 min to 45 min as a second-phase reaction. The test compounds were administered orally 30 min before the injection of formalin. The percent suppression of the formalin induced pain reaction by each test compound was determined by the following formula:
100×(PRcontrol-PRtest)/(PRcontrol) (%)
where PRtest is the time (sec) of pain reaction in a group administered with both formalin and the test compound and PRcontrol is the time (sec) of pain reaction in a control group subjected to formalin induction.

Series [3] concerns pyramidal cells in the hippocampus CA1 region. As to the kind of experiment: Effectiveness in gerbil model of delayed neuronal death (pyramidal cell count, 3 min ischemia). The format is in vivo. The conditions noted are these: carotid arteries 5 min before ischemia, ischemic control 58 ± 22, non-ischemic 249 ± 10, mean ± standard error, hydrochloride. The protocol:
(§1) The action of compounds to suppress the death of neurons in vivo was studied by the method of Murase et al., Neurosci. Lett., 149, 229, 1993 which was adapted from the method of Kirino et al., Brain Res., 239, 57, 1982. Specifically, the cervical part of a gerbil under anesthesia by halothane inhalation was incised along the median line to expose the carotid artery on both sides, which were occuluded with clips for 3 min and thereafter brought back to patency. After suturing the incised part, the anesthetization was turned off and the animal was brought back to keeping under normal condition. Seven days after loading of cerebral ischemia, the gerbil was anesthetized by administering pentobarbital, fixed by transcardiac formalin perfusion and had the brain isolated. A coronary slice including the fimbria hippocampi was prepared from the isolated brain and stained with Cresyl Violet. The pyramidal cells in the hippocampus CA1 region were counted under an optical microscope. Each test compound was administered through the carotid arteries 5 min before ischemia.

The test system is the same in series [4]. As to the kind of experiment: Effectiveness in gerbil model of delayed neuronal death (damage score, 4 min ischemia). Type of series: in vivo. The conditions noted are these: carotid arteries 5 min before ischemia, score 0-4. On the procedure:
as §1, with “Specifically,” for “The action of compounds to suppress the death of neurons in vivo was studied by the method of Murase et al., Neurosci. Lett., 149, 229, 1993 which was adapted from the method of Kirino et al., Brain Res., 239, 57, 1982. Specifically,”, “4” for “3”, “Three” for “Seven”, “examined” for “counted”, “microscope and the degree of damage was rated by the following scores: 0, no damage; 1, slight damage; 2, moderate damage; 3, significant damage; 4, total damage.” for “microscope.”

For a further series, the system named is hippocampus. The conditions noted are these: Bode et al., cited from earlier work.
For series [5], the system named is neurons isolated from the cerebrum. As to the kind of experiment: Veratrine-induced neuronal death suppressing action (MTT). Particulars: Rattus norvegicus, Neuron; veratrine 0.35 mM; MTT after 24 h; probit method; read-out: IC50 (50% suppression of veratrine-induced neuronal death). Type of series: cell-based, embryonic day 16 rats. The protocol:
The action of compounds to suppress the death of neurons induced by veratrine was evaluated in terms of their effectiveness in suppressing the neuronal death as induced by direct addition of veratrine. An experiment was run by a method adapted from the method of Powells et al., J. Pharmacol. Exp. Therapeutics, 255, 1117, 1987. Specifically, neurons were isolated from the cerebrum of embryonic day 16 rats in the usual manner, suspended in a MEM medium containing 10% fetal bovine serum, seeded onto a polylysine-coated culture plate at a density of 2.5×10^5 cells per square centimeter and cultivated at 37° C. in 95% air+5% CO2. Starting on the fifth day of cultivation, treatment was conducted with 10 μM of cytosine arabinoside for 2 days and the cultivation was continued until the 12th day, when a test was run as follows. The cells were treated with a buffer solution containing veratrine (0.35 mM) and a test compound, replaced in a serum-containing medium and cultivated for another 24 h. Subsequently, the number of viable cells was determined by calorimetric quantification using 3-(4,5-dimethylthiazol-2-yl)-2,5-diphenyltetrazolium bromide (MTT). The percent suppression of neuronal death by the test compound was determined by the following formula:
(§2) 100×(ODtest-ODcontrol)/(ODnormal-ODcontrol) (%)
where ODtest is the number of cells (absorbance) in the group of addition of veratrine+test compound, ODcontrol is the number of cells (absorbance) in a control group of addition of veratrine, and ODnormal is the number of cells (absorbance) in a control (normal) group without addition of veratrine.
In addition, IC50 values indicating the effectiveness in achieving 50% suppression of neuronal death were calculated by the probit method on the basis of the result from more than one concentration.

In a further series the test system is mice (ICR). Put plainly: Acute toxicity test. Particulars: 100 mg/kg, intraperitoneal, 7-day observation, 3 animals per group. The format is in vivo, mouse.
The subject of series [6] is neurons isolated from the cerebrum. Put plainly: Naturally occurring neuronal death suppressing action (serum-free cultivation, Crystal Violet). Type of series: cell-based, embryonic day 16 rats. The conditions noted are these: Rattus norvegicus, Neuron, 72 h; 1.0 μg/ml; serum-free, 3 days; read-out: Suppression of Naturally Occurring Neuronal Death. The protocol: The action of compounds to suppress the naturally occurring death of neurons was evaluated in terms of their effectiveness in suppressing or inhibiting the naturally occurring death of neurons as induced by exposing cultured neurons to serum-free cultivation conditions. An experiment was run by a method adapted from the method of Shimojo et al., Neurosci. Lett., 151, 170, 1993. Specifically, neurons were isolated from the cerebrum of embryonic day 16 rats in the usual manner, suspended in a DMEM/F12 medium containing 1% fetal bovine serum, seeded onto a polylysine-coated culture plate at a density of 5×10^4 cells per square centimeter and cultivated at 37° C. in 95% air+5% CO2. After one day of culture, the medium was replaced with a serum-free medium containing a compound to be tested and the cultivation was continued for 3 more days. Subsequently, the cells were fixed with 1% glutaraldehyde and their number was determined by calorimetric quantification using Crystal Violet (Anal. Biochem., 182, 16-19, 1989). The percent suppression of neuronal death by the test compound was determined by the following formula:
as §2
where ODtest is the number of cells (absorbance) in the group of addition of test compound after serum removal, ODcontrol is the number of cells (absorbance) in a control group after serum removal, and ODnormal is the number of cells (absorbance) in a control (normal) group without serum removal.

For the next series, the system named is cerebral infarction. Put plainly: Effectiveness in rat model of permanent occlusion of middle cerebral artery. The format is in vivo. The conditions noted are these: 10 mg/kg, tail vein, 10 min after occlusion; 24 h; control 14.7 ± 0.8; mean ± standard error; ** p < 0.01 vs control group. From the text: The therapeutic effect of compounds against cerebral infarction was studied in accordance with the method of Tamura et al., J. Cereb. Blood Flow Metab., 1, 53, 1981.
Specifically, a hole was made transorbitally in part of the cranial bone of a rat under anesthesia by halothane inhalation to expose the origin of the middle cerebral artery. Then, using a bipolar coagulator, the middle cerebral arteries were burnt to coagulate for permanent occlusion. The operative site was sutured and after the anesthetization was turned off, the animal was brought back to keeping under normal condition. Twenty-four hours after loading of cerebral ischemia, the rat was decapitated and the brain was isolated. The isolated brain was cut at a predetermined site to prepare five coronary slices. The infarct area of each section was rendered visible by staining with 2,3,5-triphenyltetrazolium chloride (TTC) and quantitated with an image analyzer. A test compound was administered through the tail vein 10 min after the occlusion of the middle cerebral arteries and comparison was made with a control group administered with a solvent alone.

[7] abbreviates: 10 mg/kg, ** p < 0.01 vs ischemic control group.
[8] abbreviates: 10 mg/kg, ischemic control 2.9 ± 0.3, mean ± standard error (Table 3-1).

Turning to `Cc1ccc(-c2nc(C)c(CN3CCN(C(c4ccccc4)c4ccccc4)CC3)[nH]2)cc1` [lifarizine], in series [1], the “effectiveness in cerebral ischemic animal models (in words)” value (shortened to “effectiveness”) is “effective”.
On to `CC(C)=CCN1CCC2(C)c3cc(O)ccc3CC1C2C` (stereo not drawn) [pentazocine, reference compound], for which, in series [2] (10 mg/kg, subcutaneous), the “suppression of the first-phase pain reaction” value is listed as 61% and the “suppression of the second-phase pain reaction” value worked out at 40%.
For the molecule `O=c1[nH]c2cc(-n3ccnc3)c([N+](=O)[O-])cc2[nH]c1=O` [YM90K], the “effectiveness” value in [1] is given as “effective”.
In the case of `Cl.Fc1ccccc1-c1[nH]c2cccc3c2c1CCC3N1CCOCC1` (single isomer, unassigned; (+)) [Example 247, (+)-2-(2-fluorophenyl)-5-morpholino-1,3,4,5-tetrahydrobenz[cd]indole hydrochloride], the “Pyramidal cell count in hippocampus CA1” value in series [3] (2.5 mg/kg) came out at 96 ± 31 cells/mm; in series [3] (setting [7]) it was 83 ± 35 cells/mm.
In the case of `O=C(O)[C@@H]1C[C@H](CP(=O)(O)O)CCN1` (relative stereo) [selphotel], the “effectiveness” value in series [1] is “effective”.
`CN1CCN(c2ncc(-c3cc(Cl)cc(Cl)c3Cl)c(N)n2)CC1` [BW619C89]: in [1], the “effectiveness” value is given as “effective”.
For the molecule `Cl.Fc1ccccc1-c1[nH]c2cccc3c2c1CCC3N1CCOCC1` (stereo not drawn) [Example 232, 2-(2-fluorophenyl)-5-morpholino-1,3,4,5-tetrahydrobenz[cd]indole hydrochloride], in series [4] (10 mg/kg, ischemic control 3.5 ± 0.4, mean ± standard error (Table 3-2)), the “Score of damage to hippocampus CA1” value is given as 2.5 ± 0.7. In series [2] (200 mg/kg), the “Suppression of pain reaction, Second phase” value came to 100% and the “Suppression of pain reaction, First phase” value is recorded as 51%.
Consider `C[C@]12N[C@H](Cc3ccccc31)c1ccccc12` [dizocilpine], for which the “effectiveness” value in series [1] is listed as “effective”.
Take `CCCN(CCC)C1Cc2c[nH]c3ccc(OC)c(c23)C1` (stereo not drawn) [BAY-R-1531]: the “effect on damage to the hippocampus of gerbils after brain ischemia (in words)” value in the series on hippocampus (Stroke, 21, 1990) is on record as “effective for damage to the hippocampus of gerbils after brain ischemia”. In the series on hippocampus (serotonin-like action), the “dose of protective effect relative to dose altering patterns of behavior (in words)” value is listed as “the protective effect of the compound was only recognized at a by far higher dose than the one that caused altered patterns of behavior due to a serotonin-like action”.
Take `Cn1c(-c2ccccc2)c2c3c(cccc31)C(N)CC2` (stereo not drawn) [Example 107, 5-amino-1-methyl-2-phenyl-1,3,4,5-tetrahydrobenz[cd]indole]: the “Score of damage to hippocampus CA1” value in series [4] (setting [8]) is 0.5 ± 0.5. Moreover, in [5], the IC50 – broadly, the concentration that gives 50% inhibition – worked out at 0.33 µg/mL (≈ 1.26 µM).
For the molecule `NC1CCc2c(-c3ccccc3)[nH]c3c(Cl)ccc1c23` (stereo not drawn) [Example 86, 5-amino-8-chloro-2-phenyl-1,3,4,5-tetrahydrobenz[cd]indole], in series [4] (5 mg/kg, ischemic control 2.9 ± 0.3, mean ± standard error (Table 3-1)), the “Score of damage to hippocampus CA1” value is 1.8 ± 0.1. In addition, in the series on mice (ICR), the “death (acute toxicity)” value is “no case of death was found”.
`Cl.Cn1c(-c2ccccc2)c2c3c(cccc31)C(N1CCOCC1)CC2` (stereo not drawn) [Example 237, 1-methyl-5-morpholino-2-phenyl-1,3,4,5-tetrahydrobenz[cd]indole hydrochloride]: in [2] (100 mg/kg), the “Suppression of pain reaction, Second phase” value amounted to 97% and the “Suppression of pain reaction, First phase” value is 63%.
For `Cl.Fc1ccccc1-c1[nH]c2cccc3c2c1CCC3N1CCOCC1` (single isomer, unassigned; (-)) [Example 248, (-)-2-(2-fluorophenyl)-5-morpholino-1,3,4,5-tetrahydrobenz[cd]indole hydrochloride], the “Pyramidal cell count in hippocampus CA1” value in [3] (2.5 mg/kg) amounted to 87 ± 29 cells/mm; in series [3] (setting [7]), 206 ± 14 cells/mm.
For the molecule `NC1CCc2c(-c3ccccc3)[nH]c3cccc1c23` (stereo not drawn) [Example 81, 5-amino-2-phenyl-1,3,4,5-tetrahydrobenz[cd]indole], the inhibition at 1 µg/mL in [6] is 51%. Moreover, in [4] (setting [8]), the “Score of damage to hippocampus CA1” value is 0.1 ± 0.1. In the series with cerebral infarction, this molecule yielded a Weight of infarction of 9.3 ± 1.5%. In addition, the IC50 in [5] amounted to 3.2 µg/mL (≈ 12.9 µM). Besides, in the series on mice (ICR), the “death (acute toxicity)” value is “no case of death was found”.
